# Measured values as given in US12415770B2, “Modulators of liver receptor homologue 1 (LRH-1) and uses” (Emory University, priority 2017, dated 2025).
# Entries after “also recorded” stand apart in the source; their conditions may differ.
# Assays:
# [1] = cited from earlier work
# H390A-LRH-1 = H390A-LRH-1 (Homo sapiens, UniProt O00482, H390A); test: Luciferase reporter assay (SHP-luc), H390A mutant LRH-1; conditions: His-390 mutated to alanine
# LRH-1 = target: T1, LRH-1 (Homo sapiens, UniProt O00482); test: Luciferase reporter assay (SHP-luc) in HeLa cells transfected with full-length LRH-1; type: cell-based; conditions: for Relative Efficacy: fold increase over baseline (DMSO-treated cells) relative to the fold increase induced by RJW100
# T1 construct: The transfected plasmids included full-length LRH-1 in a pCI vector; expressed in transfected cells; host or cells: HeLa
# Protocol: EC50 and Relative Activity values were calculated from luciferase reporter assays.
# LRH-1 LBD = target: T2, LRH-1 LBD (Homo sapiens, UniProt O00482); test: Thermofluor (DSF) assay, purified LRH-1 LBD-His protein; type: binding; conditions: for ΔTm at 50 µM: read-out: ΔTm (mean +/− SEM) (° C.)
# T2 construct: LRH-1 LBD (residues 299-541) in the pMSC7 vector was expressed in BL21 (DE3) pLysS E. coli; made in house; host or cells: E. coli BL21 (DE3) pLysS
# Protocol: Thermofluor assays—Purified LRH-1 LBD-His protein (0.2 mg/ml) was incubated overnight with 50 μM of each compound at 4° C. The final DMSO concentration in the reactions was 1%. SYPRO orange dye (Invitrogen) was then added at a 1:1000 dilution. Reactions were heated at a rate of 0.5° C. per minute, using a StepOne Plus Real Time PCR System (ThermoFisher). […] Data were analyzed by first subtracting baseline fluorescence (ligands+SYPRO with no protein) and then fitting the curves using the Bolzman equation (GraphPad Prism, v6) to determine the Tm. […]
# [2] = diabetic mice fed DLPC, mouse models of insulin resistance
# [3] = HeLa cells, SHP-luc reporter, 24 hours, 0.03-30 μM
# [4] = 50 μM compound, relative to DLPC-bound LRH-1
# T2 sequence (O00482 299-541): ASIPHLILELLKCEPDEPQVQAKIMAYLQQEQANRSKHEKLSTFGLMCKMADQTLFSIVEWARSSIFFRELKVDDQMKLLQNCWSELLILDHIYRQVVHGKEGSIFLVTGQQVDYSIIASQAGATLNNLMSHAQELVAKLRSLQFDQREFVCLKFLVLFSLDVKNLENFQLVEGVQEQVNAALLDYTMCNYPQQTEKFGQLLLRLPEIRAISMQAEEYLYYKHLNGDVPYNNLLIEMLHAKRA
# T1 sequence (O00482 whole entry): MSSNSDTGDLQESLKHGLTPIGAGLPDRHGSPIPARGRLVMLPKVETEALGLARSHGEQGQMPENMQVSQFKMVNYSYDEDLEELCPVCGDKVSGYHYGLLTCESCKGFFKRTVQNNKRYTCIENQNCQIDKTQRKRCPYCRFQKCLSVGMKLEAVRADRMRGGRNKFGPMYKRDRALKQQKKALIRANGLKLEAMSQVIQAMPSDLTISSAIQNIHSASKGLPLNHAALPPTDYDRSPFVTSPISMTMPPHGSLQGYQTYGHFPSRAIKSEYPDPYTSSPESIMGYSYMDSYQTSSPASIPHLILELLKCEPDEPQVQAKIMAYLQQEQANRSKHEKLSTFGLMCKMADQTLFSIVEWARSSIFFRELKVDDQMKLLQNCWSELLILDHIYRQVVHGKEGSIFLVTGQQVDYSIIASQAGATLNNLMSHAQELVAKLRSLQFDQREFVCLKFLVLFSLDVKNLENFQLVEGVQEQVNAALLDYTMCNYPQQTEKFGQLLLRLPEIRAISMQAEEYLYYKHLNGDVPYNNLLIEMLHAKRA
# Sequence of H390A-LRH-1 (O00482 whole entry H390A): as the sequence (O00482 whole entry) above, with H390A counted along it
SMILES,EC50 (LRH-1; [3]) [µM],Relative Efficacy (LRH-1),ΔTm at 50 µM (LRH-1 LBD; [4]) [°C],EC50 (μM) (LRH-1; [3]),also measured
"CCCCCCCCCCCC(=O)OC[C@H](COP(=O)([O-])OCC[N+](C)(C)C)OC(=O)CCCCCCCCCCC [DLPC, dilauroyl-phosphatidylcholine]",,,,,"bile acid levels ([1]; DLPC treatment, mouse): increases bile acid levels; hepatic triglycerides and serum glucose ([1]; DLPC treatment, mouse): lowers hepatic triglycerides and serum glucose; circulating insulin, triglycerides, and free fatty acids ([1]; diabetic mice fed DLPC): reduced quantities; glucose tolerance / glucose homeostasis [1, 2]: improves glucose homeostasis; also recorded: improved glucose tolerance; hepatic fat accumulation / hepatic steatosis [1, 2]: decreases hepatic steatosis; also recorded: reduced hepatic fat accumulation"
"CCC/C=C(\CCC)C1=C(c2ccccc2)[C@]2(Nc3ccccc3)CCC[C@@H]2C1 [GSK8470, reference compound]",,,,,"activation of H390A-LRH-1 (H390A-LRH-1): completely unable to activate; increase of LRH-1 activity compared with DMSO (LRH-1; WT LRH-1, highest dose): ~2.5 fold; EC50 (LRH-1; WT LRH-1, text): ~4 µM; stabilization of LRH-1-ligand complex / Tm shift (LRH-1 LBD; WT LRH-1): did not affect the melting profile"
"C=C(c1ccccc1)[C@@]12CC[C@@H](O)C1CC(CCCCCC)=C2c1cc(N)ccc1F (mixture of isomers) [Compound 16g, (Exo)-4-(5-amino-2-fluorophenyl)-5-hexyl-3a-(1-phenylvinyl)-1,2,3,3a,6,6a-hexahydropentalen-1-ol]",24,3.8,< 1,,
"C=C(c1ccccc1)[C@@]12CC[C@@H](N=[N+]=[N-])C1CC(CCCCCC)=C2c1ccccc1 (stereo partly drawn) [Compound 31-exo, (Endo or Exo)-5-hexyl-4-phenyl-3a-(1-phenylvinyl)-1,2,3,3a,6,6a-hexahydropentalen-1-azide]",2,0.45,< 1,,
"C=C(c1ccccc1)C12CCC(C#N)C1CC(CCCCCC)=C2c1ccccc1 (stereo not drawn) [Compound 32-endo, (Endo or Exo)-5-hexyl-4-phenyl-3a-(1-phenylvinyl)-1,2,3,3a,6,6a-hexahydropentalene-1-carbonitrile]",,0,,,ΔTm (mean +/− SEM) (° C.) (LRH-1 LBD; [4]): ns (Ns = Tm changes were less than 1° C.)
"C=C(c1ccccc1)[C@@]12CC[C@@H](O)[C@@H]1CC(CCCCCCCC(=O)O)=C2c1ccccc1 (relative stereo) [Compound 9f, 8-(6-exo-hydroxy-3-phenyl-3a-(1-phenylvinyl)-1,3a,4,5,6,6a-hexahydropentalen-2-yl)octanoic acid]",4,2.48,4.4,,
"C=C(c1ccccc1)C12CCC(O)C1CC(CCCCCCCCOP(=O)([O-])OCC[N+](C)(C)C)=C2c1ccccc1 (stereo not drawn) [Compound 9g, 8-(6-exo-hydroxy-3-phenyl-3a-(1-phenylvinyl)-1,3a,4,5,6,6a-hexahydropentalen-2-yl)octyl (2-(trimethylammonio)ethyl) phosphate]",> 30,1.12,5.6,,
"C=C(c1ccccc1)[C@@]12CC[C@@H](O)[C@@H]1CC(CCCCCCCCCOP(=O)([O-])OCC[N+](C)(C)C)=C2c1ccccc1 (relative stereo) [Compound 10g, 9-(6-exo-hydroxy-3-phenyl-3a-(1-phenylvinyl)-1,3a,4,5,6,6a-hexahydropentalen-2-yl)nonyl (2-(trimethylammonio)ethyl) phosphate]",2,2.74,< 1,,
"C=C(c1ccccc1)C12CCC(O)C1CC(CCCCCCCCCCCOP(=O)([O-])OCC[N+](C)(C)C)=C2c1ccccc1 (stereo not drawn) [Compound 12g, 11-(6-exo-hydroxy-3-phenyl-3a-(1-phenylvinyl)-1,3a,4,5,6,6a-hexahydropentalen-2-yl)undecyl (2-(trimethylammonio)ethyl) phosphate]",5.1,0.93,-1.7,,
"C=C(c1ccccc1)[C@@]12CC[C@@H](N)C1CC(CCCCCC)=C2c1ccccc1 (stereo partly drawn) [Compound 33-exo, (Endo or Exo)-5-hexyl-4-phenyl-3a-(1-phenylvinyl)-1,2,3,3a, 6,6a-hexahydropentalen-1-amine]",,0.56,-3,,
"C=C(c1ccc(O)cc1)[C@@]12CC[C@@H](O)C1CC(CCCCCC)=C2c1ccccc1 (mixture of isomers) [Compound 23b, (Exo)-5-hexyl-3a-(1-(4-hydroxyphenyl)vinyl)-4-phenyl-1,2,3,3a,6,6a-hexahydropentalen-1-ol]",5,0.86,< 1,,
"C=C(c1ccccc1)[C@@]12CC[C@@H](O)[C@@H]1CC(CCCCO)=C2c1ccccc1 (relative stereo) [Compound 5e, Exo-5-(4-hydroxybutyl)-4-phenyl-3a-(1-phenylvinyl)-1,2,3,3a,6,6a-hexahydropentalen-1-ol]",1.4,0.83,3.1,,
"C=C(c1ccccc1)C12CCC(O)C1CC(CCCCCO)=C2c1ccccc1 (stereo not drawn) [Compound 6e, Exo-5-(5-hydroxypentyl)-4-phenyl-3a-(1-phenylvinyl)-1,2,3,3a,6,6a-hexahydropentalen-1-ol]",,1.57,2.4,cnc,
"C=C(c1ccccc1OC)[C@@]12CC[C@@H](O)C1CC(CCCCCC)=C2c1ccccc1 (mixture of isomers) [Compound 22, (Exo)-5-hexyl-3a-(1-(2-methoxyphenyl)vinyl)-4-phenyl-1,2,3,3a,6,6a-hexahydropentalen-1-ol]",,0.42,< 1,cnc,
"C=C(c1ccccc1)C12CCC(O)C1CC(CCCCCCOP(=O)([O-])OCC[N+](C)(C)C)=C2c1ccccc1 (stereo not drawn) [Compound 7g, 6-(6-exo-hydroxy-3-phenyl-3a-(1-phenylvinyl)-1,3a,4,5,6,6a-hexahydropentalen-2-yl)hexyl(2-(trimethylammonio)ethyl) phosphate]",,0.00,< 1,cnc,
"C=C(c1ccccc1)[C@@]12CC[C@@H](O)[C@@H]1CC(CCCCCCCCCCOP(=O)([O-])OCC[N+](C)(C)C)=C2c1ccccc1 (relative stereo) [Compound 11g, 10-(6-exo-hydroxy-3-phenyl-3 a-(1-phenylvinyl)-1,3a,4,5,6,6a-hexahydropentalen-2-yl)decyl (2-(trimethylammonio)ethyl) phosphate]",5,2.48,-2.4,,
"C=C(c1ccccc1)[C@@]12CC[C@@H](O)[C@@H]1CC(CCCCCCCCCCC(=O)O)=C2c1ccccc1 (relative stereo) [Compound 12f, 11-(6-exo-hydroxy-3-phenyl-3a-(1-phenylvinyl)-1,3a,4,5,6,6a-hexahydropentalen-2-yl)undecanoic acid]",0.3,1.74,2.5,,
"C=C(c1ccccc1)C12CCC(O)C1CC(CCCC(=O)O)=C2c1ccccc1 (stereo not drawn) [Compound 5f, 4-(6-exo-hydroxy-3-phenyl-3a-(1-phenylvinyl)-1,3a,4,5,6,6a-hexahydropentalen-2-yl)butanoic acid]",,1.43,2.3,cnc,
"C=C(c1ccccc1)C12CCC(O)C1CC(CCCCCCCOP(=O)([O-])OCC[N+](C)(C)C)=C2c1ccccc1 (stereo not drawn) [Compound 8g, 7-(6-exo-hydroxy-3-phenyl-3a-(1-phenylvinyl)-1,3a,4,5,6,6a-hexahydropentalen-2-yl)heptyl (2-(trimethylammonio)ethyl) phosphate]",,0.81,2.9,cnc,
"C=C(c1ccccc1)C12CCC(O)C1CC(CCCCC(=O)O)=C2c1ccccc1 (stereo not drawn) [Compound 6f, 5-(6-exo-hydroxy-3-phenyl-3a-(1-phenylvinyl)-1,3a,4,5,6,6a-hexahydropentalen-2-yl)pentanoic acid]",,0.60,1.3,cnc,
